The results in this text go back to US7858644B2, “EP4 receptor antagonists” (Asterand UK Limited, priority 2003, dated 2010).

Test [1] deals with T1, human EP4 receptor (Homo sapiens, UniProt P35408).
T1 construct: expressed in transfected cells
Briefly: Binding ability to human EP4 receptor ([3H]PGE2 displacement). The settings on record: read-out: pKi EP4 (converted).

Test [2] deals with T2, human EP1 receptor (Homo sapiens, UniProt P34995).
T2 construct: expressed in transfected cells
T2 sequence (P34995 1-402): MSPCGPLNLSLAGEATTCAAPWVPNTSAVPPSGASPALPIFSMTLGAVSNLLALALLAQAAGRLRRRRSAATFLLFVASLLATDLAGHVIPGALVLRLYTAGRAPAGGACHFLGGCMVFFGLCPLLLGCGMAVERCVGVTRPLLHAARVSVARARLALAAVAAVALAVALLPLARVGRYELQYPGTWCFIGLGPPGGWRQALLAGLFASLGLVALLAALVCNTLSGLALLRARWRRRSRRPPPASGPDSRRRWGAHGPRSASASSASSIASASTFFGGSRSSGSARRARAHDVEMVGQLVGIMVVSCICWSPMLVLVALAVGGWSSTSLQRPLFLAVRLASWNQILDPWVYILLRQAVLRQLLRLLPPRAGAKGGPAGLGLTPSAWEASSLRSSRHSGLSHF
Briefly: Binding ability to human EP1 receptor ([3H]PGE2 displacement). As to conditions: membranes from cells stably transfected with human EP receptor cDNA; [3H]PGE2 3.6 nM; Cheng-Prusoff from IC50; read-out: pKi EP1 (converted). Here is the method: Membranes were prepared from cells stably transfected with human EP receptor cDNA. In brief, cells were cultured to confluency, scraped from culture flasks, and centrifuged (800 g, 8 minutes, 4° C.). Cells were twice washed in ice cold homogenisation buffer containing 10 mMTris-HCl, 1 mM EDTA. 2Na, 250 mM sucrose, 1 mM PMSF, 0.3 mM indomethacin, pH 7.4, homogenised and re-centrifuged as before. The supernatant was stored on ice and pellets re-homogenised and re-spun. Supernatants were pooled and centrifuged at 40000 g, 10 minutes, 4° C. Resultant membrane pellets were stored at −80° C. until use.
For assay, membranes expressing human EP4, EP3, EP2 or EP1 receptors were incubated in Millipore (MHVBN45) plates containing assay buffer, radiolabelled [^3H]PGE2 and 0.1 to 10 000 nM concentrations of compounds. Incubations were performed at suitable temperatures and for suitable times to allow equilibrium to be reached. Non-specific binding was determined in the presence of 10 uM PGE2. Bound and free radiolabel was separated by vacuum manifold filtration using appropriate wash buffers, and bound radiolabel was determined by scintillation counting. Constituents of each of the buffers are included in table 1 below.
This approach follows that set out in Kenakin, T. P., Pharmacologic analysis of drug receptor interaction. Raven Press, New York, 2nd edition.

Test [3] addresses T3, human EP2 receptor (Homo sapiens, UniProt P43116).
T3 construct: expressed in transfected cells
Briefly: Binding ability to human EP2 receptor ([3H]PGE2 displacement). As to conditions: read-out: pKi EP2 (converted). The essentials:
(§1)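 Membranes from cells stably transfected with human EP receptor cDNA were incubated to equilibrium with [3H]PGE2 and compound (0.1 to 10 000 nM). Non-specific binding was defined with 10 uM PGE2; bound radioligand was separated by vacuum filtration and counted by scintillation.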

Test [4] addresses T4, human EP3 receptor (Homo sapiens, UniProt P43115).
T4 construct: expressed in transfected cells
T4 sequence (P43115 1-390): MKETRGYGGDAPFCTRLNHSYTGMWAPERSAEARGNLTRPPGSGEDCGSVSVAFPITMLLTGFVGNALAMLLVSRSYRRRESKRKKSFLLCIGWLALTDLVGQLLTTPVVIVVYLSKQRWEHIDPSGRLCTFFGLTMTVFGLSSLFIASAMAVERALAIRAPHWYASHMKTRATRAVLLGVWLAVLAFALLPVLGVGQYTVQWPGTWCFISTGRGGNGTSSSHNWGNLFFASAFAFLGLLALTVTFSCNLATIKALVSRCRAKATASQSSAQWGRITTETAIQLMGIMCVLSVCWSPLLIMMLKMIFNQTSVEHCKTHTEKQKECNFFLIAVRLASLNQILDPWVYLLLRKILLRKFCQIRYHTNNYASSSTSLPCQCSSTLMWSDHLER
Briefly: Binding ability to human EP3 receptor ([3H]PGE2 displacement). As to conditions: membranes from cells stably transfected with human EP receptor cDNA; [3H]PGE2 2.5 nM; Cheng-Prusoff from IC50; read-out: pKi EP3 (converted). The essentials:
as §1

T3 sequence (P43116 whole entry): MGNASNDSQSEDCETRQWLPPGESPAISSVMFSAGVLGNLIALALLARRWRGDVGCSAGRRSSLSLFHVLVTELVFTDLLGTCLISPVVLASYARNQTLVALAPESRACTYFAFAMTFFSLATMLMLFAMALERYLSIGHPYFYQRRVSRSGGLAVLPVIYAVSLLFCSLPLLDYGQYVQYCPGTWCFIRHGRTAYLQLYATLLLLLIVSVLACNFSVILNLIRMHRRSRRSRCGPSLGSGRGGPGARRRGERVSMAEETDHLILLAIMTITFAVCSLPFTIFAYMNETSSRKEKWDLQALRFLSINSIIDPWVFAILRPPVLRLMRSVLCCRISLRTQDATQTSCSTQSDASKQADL
T1 sequence (P35408 whole entry): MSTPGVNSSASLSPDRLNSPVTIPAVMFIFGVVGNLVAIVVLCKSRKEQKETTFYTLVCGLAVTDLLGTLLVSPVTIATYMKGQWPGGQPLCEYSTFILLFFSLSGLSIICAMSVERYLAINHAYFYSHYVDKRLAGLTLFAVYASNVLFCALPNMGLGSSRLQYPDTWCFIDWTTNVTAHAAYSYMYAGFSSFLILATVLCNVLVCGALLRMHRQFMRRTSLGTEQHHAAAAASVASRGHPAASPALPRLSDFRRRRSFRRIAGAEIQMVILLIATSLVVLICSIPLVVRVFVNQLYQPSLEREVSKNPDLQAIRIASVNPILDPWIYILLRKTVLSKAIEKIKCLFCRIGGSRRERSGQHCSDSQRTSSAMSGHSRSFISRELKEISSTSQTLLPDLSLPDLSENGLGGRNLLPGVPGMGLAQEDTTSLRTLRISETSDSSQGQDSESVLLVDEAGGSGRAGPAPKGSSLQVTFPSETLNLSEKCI

As to `COc1ccc(-c2ccc(OCc3cc(S(=O)(=O)NC(=O)c4ccccc4)oc3C)cc2)cc1` [Compound 49, 4-(4′-Methoxy-biphenyl-4-yloxymethyl)-5-methyl-furan-2-sulfonic acid benzoylamide], the Ki is less than 0.01 µM in test [1], more than 10 µM in test [2], more than 10 µM in test [3] and more than 10 µM in test [4].

For `Cc1ccccc1S(=O)(=O)NC(=O)c1cc(COc2ccc(-c3ccccc3)cc2)c(C)o1` [Compound 60, N-[4-(Biphenyl-4-yloxymethyl)-5-methyl-furan-2-carbonyl]-2-methyl-benzenesulphonamide], the Ki was less than 0.01 µM in test [1], more than 10 µM in test [2], more than 10 µM in test [3] and more than 10 µM in test [4].

For the compound `COc1ccc(-c2ccc(NC(=O)c3cc(C(=O)O)oc3C)cc2)cc1` [Compound 24, 4-(4′-Methoxy-biphenyl-4-ylcarbamoyl)-5-methyl-furan-2-carboxylic acid], the Ki was less than 0.316 µM in test [1], more than 10 µM in test [2], more than 10 µM in test [3] and more than 10 µM in test [4].

For the compound `CSc1ccccc1-c1ccc(OCc2cc(C(=O)O)oc2C)cc1` [Compound 105, 5-Methyl-4-(2′-methylsulfanyl-biphenyl-4-yloxymethyl)-furan-2-carboxylic acid], the results for the Ki in test [1], in test [3] and in test [4] were less than 3.16 µM, more than 10 µM and more than 10 µM, respectively.

For the compound `COc1ccc(-c2ccc(OCc3cc(C(=O)O)oc3C(C)C)cc2)cc1` [Compound 86, 5-Isopropyl-4-(4′-methoxy-biphenyl-4-yloxymethyl)-furan-2-carboxylic acid], the Ki in test [1] is less than 1 µM; in test [3], more than 10 µM; in test [4] it was more than 10 µM.
